Where a name gives a salt, the structure may show the parent alone. Read-outs that look alike come from different tables or passages of the source.
Legend:
PIM1 = PIM1 (Homo sapiens (Human), UniProt P11309); assay: biochemical; type: biochemical; settings: 10 μM ATP, 90 min, room temperature; read-out: PIM1 LC3K (KI)
In short: (§1)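 Read-out is microfluidic electrophoretic separation of phosphorylated from unphosphorylated fluorescent Pim peptide, with Ki calculated from conversion. Reactions ran 90 min at room temperature in HEPES pH 7.2 containing MgCl2, Tween 20 and DTT, ended by EDTA-containing buffer.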

PIM3 = PIM3 (Homo sapiens (Human), UniProt Q86V86); assay: Pim kinase binding activity, Caliper LC3000 microfluidic peptide phosphorylation assay, PIM3; type: biochemical; settings: 10 μM ATP, 90 min, room temperature; read-out: PIM3 LC3K (KI)
In short: as §1

[1] = test system: MM1.S (multiple myeloma) cells; assay: In vitro cell proliferation potency assay (Cell Titer Glo), MM1.S cells; type: cell-based; settings: Homo sapiens, read-out: Prolif MM1S ATP (EC50)
Procedure: BaF3 parental line was obtained from the DSMZ repository. BaF3 lines transfected with PIM1 or PIM2 were generated. Mouse IL-3 was purchased from R&D Systems. G418 was purchased from Clontech. Media for BaF3 parental line contained RPMI, 10% FBS, 2 mM L-Glutamine, 2 ng/mL mIL-3. Media for BaF3 PIM1 & 2 lines contained RPMI, 10% FBS, 2 mM L-Glutamine, […]. Media for MM1.S (multiple myeloma cells) line contained RPMI, 10% FBS, 2 mM L-Glutamine.
BaF3, a murine interleukin-3 dependent pro-B cell line, parental cells, BaF3 PIM1 cells, BaF3 PIM2 cells, and MM1.S (multiple myeloma) cells were seeded at 2 k/well, 5 k/well, 5 k/well, and 10 k/well respectively, in a 384-well plate, at 45 μL/well. Test compound was added at 5 μL/well. BaF3 cells (parental and transfected) were incubated overnight, while MM1.S cells were incubated for 72 hours at 37° C., 5% CO2. CELL TITER GLO® Reagent (Promega) was added at 50 μL/well, the plates were incubated for 30 minutes, and their luminescence read on an HT Analyst. IC50/EC50 values for the test compound were calculated.

PIM2 = PIM2 (Homo sapiens (Human), UniProt Q9P1W9); assay: Pim kinase binding activity, Caliper LC3000 microfluidic peptide phosphorylation assay, PIM2; type: biochemical; settings: 10 μM ATP, 90 min, room temperature; read-out: PIM2 LC3K (KI)
In short: as §1

BaF3 PIM1 cells = assay: In vitro cell proliferation potency assay (Cell Titer Glo), BaF3 PIM1 cells; type: cell-based, murine; settings: read-out: Prolif BaF3_PIM 1 (IC50)
[2] = MM1.S, 72 h, MM1.S cells, 72 hours
[3] = Mus musculus, BaF3, BaF3 cells transfected with PIM1, incubated overnight

PIM2, sequence (Q9P1W9 whole entry): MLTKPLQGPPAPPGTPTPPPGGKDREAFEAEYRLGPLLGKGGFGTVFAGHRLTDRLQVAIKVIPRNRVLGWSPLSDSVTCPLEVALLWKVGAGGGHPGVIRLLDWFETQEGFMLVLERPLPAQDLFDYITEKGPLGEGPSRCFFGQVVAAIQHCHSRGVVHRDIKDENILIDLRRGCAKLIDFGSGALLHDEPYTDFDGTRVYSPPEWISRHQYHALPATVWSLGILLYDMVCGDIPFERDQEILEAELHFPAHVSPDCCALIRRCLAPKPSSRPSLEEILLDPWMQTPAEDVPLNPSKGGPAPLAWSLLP
PIM1, sequence (P11309 whole entry): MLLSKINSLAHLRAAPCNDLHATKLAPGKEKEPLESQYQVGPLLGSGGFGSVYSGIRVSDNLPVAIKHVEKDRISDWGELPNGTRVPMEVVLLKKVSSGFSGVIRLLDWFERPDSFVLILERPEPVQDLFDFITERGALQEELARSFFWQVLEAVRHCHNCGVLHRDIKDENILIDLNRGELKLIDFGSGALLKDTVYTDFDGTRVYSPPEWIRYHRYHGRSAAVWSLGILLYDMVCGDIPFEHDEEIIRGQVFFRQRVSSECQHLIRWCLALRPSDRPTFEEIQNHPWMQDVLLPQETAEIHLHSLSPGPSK

Row | Compound | Ki (PIM1) [nM] | Ki (PIM3) [nM] | EC50 [1, 2] [nM] | Ki (PIM2) [nM] | IC50 (BaF3 PIM1 cells; [3]) [nM] | EC50 ([1]; MM1.S cells, 72 hours) [nM] | IC50 (BaF3 PIM1 cells; BaF3 cells transfected with PIM1, incubated overnight) [nM] | EC50 ([1]; MM1.S, 72 h) [nM]
1 | N[C@H]1CCC[C@@H]1Nc1cncc(-c2cc3c(cn2)cnn3-c2ccccn2)n1 [Compound 307, (1S,2S)-N1-(6-(1-(pyridin-2-yl)-1H-pyrazolo[4,3-c]pyridin-6-yl)pyrazin-2-yl)cyclopentane-1,2-diamine] | 0.12 | 0.098 | 2900 | 2.97 | 640 |  |  | 
2 | C=Cc1cncc(-c2cc3c(cn2)cnn3-c2cccc(N3CCNCC3)n2)n1 [Compound 274, 1-(6-(piperazin-1-yl)pyridin-2-yl)-6-(6-vinylpyrazin-2-yl)-1H-pyrazolo[4,3-c]pyridine dihydrochloride] | 0.133 | 0.098 |  | 4.26 | 749 |  |  | 5100
3 | Cc1ccc(-n2ncc3cnc(-c4cnn(CC(F)(F)F)c4)cc32)nc1N1CCNC[C@@H](O)C1 (single isomer, unassigned) [Compound 260] | 0.047 | 0.127 |  | 1.54 | 380 |  |  | 852
4 | Cn1ncc(-c2cc3c(cn2)cnn3-c2ccccc2F)c1N1CCC(N)CC1 [Compound 316, 1-(4-(1-(2-fluorophenyl)-1H-pyrazolo[4,3-c]pyridin-6-yl)-1-methyl-1H-pyrazol-5-yl)piperidin-4-amine] | 15.5 | 47.5 | > 25000 | 336 | > 25000 |  |  | 
5 | N[C@H]1CCC[C@@H]1Oc1cncc(-c2cc3c(cn2)cnn3-c2ccccn2)n1 [Compound 304, (1S,2S)-2-(6-(1-(pyridin-2-yl)-1H-pyrazolo[4,3-c]pyridin-6-yl)pyrazin-2-yloxy)cyclopentanamine] | 0.094 | 0.07 |  | 0.744 | 255 | 1200 |  | 
6 | OCCOc1cncc(-c2cc3c(cn2)cnn3-c2cccc(N3CCNCC3)n2)n1 [Compound 278, 2-((6-(1-(6-(piperazin-1-yl)pyridin-2-yl)-1H-pyrazolo[4,3-c]pyridin-6-yl)pyrazin-2-yl)oxy)ethanol dihydrochloride] | 0.163 | 0.105 |  | 2.62 | 261 |  |  | > 6200
7 | Cc1cncc(-c2cc3c(cn2)cnn3-c2ccc(C#N)c(N3CCC[C@H](N)C3)n2)n1 [Compound 201, (S)-2-(3-aminopiperidin-1-yl)-6-(6-(6-methylpyrazin-2-yl)-1H-pyrazolo[4,3-c]pyridin-1-yl)nicotinonitrile] | 0.068 | 0.02 |  | 0.286 | 490 | 1100 |  | 
8 | c1cc(N2CCCNCC2)nc(-n2ncc3cnc(-c4cnn(C5CCC5)c4)cc32)c1 [Compound 147, 1-(6-(1,4-Diazepan-1-yl)pyridin-2-yl)-6-(1-cyclobutyl-1H-pyrazol-4-yl)-1H-pyrazolo[4,3-c]pyridine] | 0.213 | 0.259 |  | 3.92 | 869 | 2700 |  | 
9 | CS(=O)(=O)CCn1cc(-c2cc3c(cn2)cnn3-c2cccc(N3CCCNCC3)n2)cn1 [Compound 157, 1-(6-(1,4-Diazepan-1-yl)pyridin-2-yl)-6-(1-(2-(methylsulfonyl)ethyl)-1H-pyrazol-4-yl)-1H-pyrazolo[4,3-c]pyridine] | 0.087 | 0.055 | 4000 | 6.2 | 2800 |  |  | 

Continued by falling Ki (PIM1), values first:

Row | Ki (PIM1) [nM] | Ki (PIM3) [nM] | EC50 [1, 2] [nM] | Ki (PIM2) [nM] | IC50 (BaF3 PIM1 cells; [3]) [nM] | EC50 ([1]; MM1.S cells, 72 hours) [nM] | IC50 (BaF3 PIM1 cells; BaF3 cells transfected with PIM1, incubated overnight) [nM] | Compound | EC50 ([1]; MM1.S, 72 h) [nM]
10 | 0.532 | 0.656 |  | 7.81 | 797 | 4300 |  | CC(C)n1cc(-c2cc3c(cn2)cnn3-c2cccc(N3CCCNCC3)n2)cn1 [Compound 146, 1-(6-(1,4-Diazepan-1-yl)pyridin-2-yl)-6-(1-isopropyl-1H-pyrazol-4-yl)-1H-pyrazolo[4,3-c]pyridine] | 
11 | 0.136 | 0.057 | 696 | 1.72 | 2000 |  |  | C#Cc1cncc(-c2cc3c(cn2)cnn3-c2cccc(N3CCNCC3)n2)n1 [Compound 315, 6-(6-ethynylpyrazin-2-yl)-1-(6-(piperazin-1-yl)pyridin-2-yl)-1H-pyrazolo[4,3-c]pyridine] | 
12 | 0.095 | 0.0498 | 3900 | 0.893 | 284 |  |  | Cc1cncc(-c2cc3c(cn2)cnn3-c2cccc(N3CCNCC3)n2)n1 [Compound 123, 6-(6-methylpyrazin-2-yl)-1-(6-(piperazin-1-yl)pyridin-2-yl)-1H-pyrazolo[4,3-c]pyridine] | 
13 | 0.069 | 0.079 |  | 0.978 | 271 | 3100 |  | c1cc(N2CCCNCC2)nc(-n2ncc3cnc(-c4cnn(C5CC5)c4)cc32)c1 [Compound 174, 1-(6-(1,4-Diazepan-1-yl)pyridin-2-yl)-6-(1-cyclopropyl-1H-pyrazol-4-yl)-1H-pyrazolo[4,3-c]pyridine] | 
14 | 0.061 | 0.112 |  | 1.48 | 976 | 7200 |  | Cc1cncc(-c2cc3c(cn2)cnn3-c2cccc(N3CCCC4(CNC4)C3)n2)n1 [Compound 293, 1-(6-(2,6-diazaspiro[3.5]nonan-6-yl)pyridin-2-yl)-6-(6-methylpyrazin-2-yl)-1H-pyrazolo[4,3-c]pyndine] | 
15 | 0.06 | 0.022 |  | 0.54 |  | 4800 | 400 | Cc1cncc(-c2cc3c(cn2)cnn3-c2cccc(N3CCNC(C)C3)n2)n1 (single isomer, unassigned) [Compound 185, 1-[6-(3-methylpiperazin-1-yl)-2-pyridyl]-6-(6-methylpyrazin-2-yl)pyrazolo[4,3-c]pyridine] | 
16 | 0.048 | 0.064 | 16000 | 3.37 | 695 |  |  | OC1CN(c2cncc(-c3cc4c(cn3)cnn4-c3cccc(N4CCNCC4)n3)n2)C1 [Compound 281, 1-(6-(1-(6-(piperazin-1-yl)pyridin-2-yl)-1H-pyrazolo[4,3-c]pyridin-6-yl)pyrazin-2-yl)azetidin-3-ol] | 
17 | 0.034 | 0.018 |  | 0.446 | 781 | 4000 |  | OCCCc1cncc(-c2cc3c(cn2)cnn3-c2cccc(N3CCNCC3)n2)n1 [Compound 301, 3-(6-(1-(6-(piperazin-1-yl)pyridin-2-yl)-1H-pyrazolo[4,3-c]pyridin-6-yl)pyrazin-2-yl)propan-1-ol] | 
18 | 0.02 | 0.025 | 4600 | 1.83 | 385 |  |  | c1cc(N2CCNCC2)nc(-n2ncc3cnc(-c4cncc(N5CCC5)n4)cc32)c1 [Compound 284, 6-(6-(azetidin-1-yl)pyrazin-2-yl)-1-(6-(piperazin-1-yl)pyridin-2-yl)-1H-pyrazolo[4,3-c]pyridine] | 
